Measured values taken from ChEMBL document CHEMBL1649238, “Natural polymorphisms of human immunodeficiency virus type 1 integrase and inherent susceptibilities to a panel of integrase inhibitors” (2009).

What was measured:
Assay type in all cases: functional
[1] = tested on: Human immunodeficiency virus 1; test: Antiviral activity against HIV1 F-15 harboring integrase D10E, K42T, A124N, T125A, V126L, M154L, V201I, T206S, N232D, V281S mutant gene infected in human TZM-bl cells assessed as beta-galactosidase expression after 48 hrs by microplate luminometry relative to HIV1 R7/3 expressing wild type integrase enzyme
[2] = tested on: Human immunodeficiency virus 1; test: (§1) Antiviral activity against HIV1 A-6 harboring integrase D10E, V72I, A124T, M154I, R199K, V201I, N232D mutant gene infected in human TZM-bl cells assessed as beta-galactosidase expression after 48 hrs by microplate luminometry relative to HIV1 R7/3 expressing wild type integrase enzyme
[3] = tested on: Human immunodeficiency virus 1; test: Antiviral activity against HIV1 R-6 harboring integrase D10E, E11D, S17N, A23V, L28I, P30A, V72I, L101I, S119T, T122I, A124T, V201I, N222D, N232D, S230G, D253E, N254G mutant gene infected in human TZM-bl cells assessed as beta-galactosidase expression after 48 hrs by microplate luminometry relative to HIV1 R7/3 expressing wild type integrase enzyme
[4] = tested on: Human immunodeficiency virus 1; test: as §1, with “R-31” for “A-6”, “D10E, E11D, V32I, V37I,” for “D10E,”, “L101I, T112I, A124N, T125A, K173R, A205S, Q216H, N222K, S230N,” for “A124T, M154I, R199K, V201I,”
[5] = tested on: Human immunodeficiency virus 1; test: as §1, with “N-19” for “A-6”, “E11D, D25E, V31I, I113V, S119G, A124N, V151I,” for “V72I, A124T, M154I, R199K,”
[6] = tested on: Human immunodeficiency virus 1; test: Antiviral activity against HIV1 B-27 harboring integrase D10E, R20K, S39C, V72I, A124N, T125M, V201I, N232D mutant gene infected in human TZM-bl cells assessed as beta-galactosidase expression after 48 hrs by microplate luminometry relative to HIV1 R7/3 expressing wild type integrase enzyme
[7] = tested on: Human immunodeficiency virus 1; test: Antiviral activity against HIV1 B-28 harboring integrase D10E, R20K, S39C, V72I, A124N, T125V, V201I, N232D mutant gene infected in human TZM-bl cells assessed as beta-galactosidase expression after 48 hrs by microplate luminometry relative to HIV1 R7/3 expressing wild type integrase enzyme
[8] = tested on: Human immunodeficiency virus 1; test: Antiviral activity against HIV1 G-8 harboring integrase D10E, L101I, S119T, A124T, M154L, V201I, N232D, S283G mutant gene infected in human TZM-bl cells assessed as beta-galactosidase expression after 48 hrs by microplate luminometry relative to HIV1 R7/3 expressing wild type integrase enzyme
[9] = tested on: Human immunodeficiency virus 1; test: Antiviral activity against HIV1 G-4 harboring integrase K7R, D10E, S39C, L74I, K156R, K215N, T218I, N232D, L234I mutant gene infected in human TZM-bl cells assessed as beta-galactosidase expression after 48 hrs by microplate luminometry relative to HIV1 R7/3 expressing wild type integrase enzyme
[10] = tested on: Human immunodeficiency virus 1; test: Antiviral activity against HIV1 K-2 harboring integrase D10E, R20K, I113V, A124T, K188R, V201I, T206S, N232D, D278G mutant gene infected in human TZM-bl cells assessed as beta-galactosidase expression after 48 hrs by microplate luminometry relative to HIV1 R7/3 expressing wild type integrase enzyme
[11] = tested on: Human immunodeficiency virus 1; test: Antiviral activity against HIV1 harboring integrase T97A mutant infected in human TZM-bl cells assessed as beta-galactosidase expression after 48 hrs by microplate luminometry relative to HIV1 R7/3 expressing wild type integrase enzyme relative to HIV1 R7/3 expressing wild type integrase enzyme
[12] = tested on: Human immunodeficiency virus 1; test: Antiviral activity against HIV1 harboring integrase N155H mutant infected in human TZM-bl cells assessed as beta-galactosidase expression after 48 hrs by microplate luminometry relative to HIV1 R7/3 expressing wild type integrase enzyme relative to HIV1 R7/3 expressing wild type integrase enzyme

Row | Compound | Ratio EC50 [1] | Ratio EC50 [2] | Ratio EC50 [3] | Ratio EC50 [4] | Ratio EC50 [5] | Ratio EC50 [6] | Ratio EC50 [7] | Ratio EC50 [8] | Ratio EC50 [9] | Ratio EC50 [10] | Ratio EC50 [11] | Ratio EC50 [12]
1 | CNC(=O)c1cc(F)ccc1CNC(=O)c1nc(N2CCCCS2(=O)=O)c2cccnc2c1O | 0.656 | 0.5 | 1.067 | 0.995 | 0.456 | 0.627 | 0.767 | 0.425 | 0.565 | 0.448 | 0.865 | 4.295
2 | O=C(NCc1ccc(F)cc1)c1nc(N2CCCCS2(=O)=O)c2cccnc2c1O | 0.505 | 0.863 | 1.175 | 1.268 | 1.416 | 1.306 | 0.973 | 0.488 | 1.3 | 0.468 | 6.067 | 12.647
3 | CN(C)C(=O)C(=O)N(C)c1nc(C(=O)NCc2ccc(F)cc2)c(O)c2ncccc12 | 0.33 | 0.836 | 0.412 | 1.589 | 0.927 | 0.966 | 0.673 | 0.515 | 0.643 | 0.461 | 3.767 | 2.692
4 | CN(C)C(=O)C(=O)NC(C)(C)c1nc(C(=O)NCc2ccc(F)cc2)c(O)c(=O)n1C | 0.329 | 0.946 | 0.644 | 1.005 | 0.998 | 0.592 | 0.766 | 0.286 | 0.847 | 0.394 | 2 | 0.78
